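The compound was tested at five concentrations on cells cultured in 96-well plates, with a 48-hour exposure period. TGI: concentration producing complete growth inhibition.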
Key:
Assay in all cases: DTP human tumour cell line panel, 48 h
HOP-92 NSCLC = test system: HOP-92 NSCLC
ACHN renal = test system: ACHN renal
SK-MEL-28 melanoma = test system: SK-MEL-28 melanoma
M19-MEL melanoma = test system: M19-MEL melanoma
LXFL 529 NSCLC = test system: LXFL 529 NSCLC
A498 renal = test system: A498 renal
SF-268 CNS = test system: SF-268 CNS
HCC-2998 colon = test system: HCC-2998 colon
SK-MEL-5 melanoma = test system: SK-MEL-5 melanoma
MALME-3M melanoma = test system: MALME-3M melanoma
SNB-19 CNS = test system: SNB-19 CNS
SK-MEL-2 melanoma = test system: SK-MEL-2 melanoma
RPMI-8226 leukemia = test system: RPMI-8226 leukemia
RXF 393 renal = test system: RXF 393 renal
HOP-62 NSCLC = test system: HOP-62 NSCLC
U251 CNS = test system: U251 CNS
CCRF-CEM leukemia = test system: CCRF-CEM leukemia
CAKI-1 renal = test system: CAKI-1 renal
DMS 114 small cell lung = test system: DMS 114 small cell lung
KM12 colon = test system: KM12 colon
K-562 leukemia = test system: K-562 leukemia
SF-295 CNS = test system: SF-295 CNS
OVCAR-4 ovarian = test system: OVCAR-4 ovarian
786-0 renal = test system: 786-0 renal
SK-OV-3 ovarian = test system: SK-OV-3 ovarian
LOX IMVI melanoma = test system: LOX IMVI melanoma
UACC-62 melanoma = test system: UACC-62 melanoma
SNB-78 CNS = test system: SNB-78 CNS
DLD-1 colon = test system: DLD-1 colon
OVCAR-5 ovarian = test system: OVCAR-5 ovarian
HCT-15 colon = test system: HCT-15 colon
DMS 273 small cell lung = test system: DMS 273 small cell lung
HL-60(TB) leukemia = test system: HL-60(TB) leukemia
KM20L2 colon = test system: KM20L2 colon
OVCAR-3 ovarian = test system: OVCAR-3 ovarian
EKVX NSCLC = test system: EKVX NSCLC
SNB-75 CNS = test system: SNB-75 CNS
SR leukemia = test system: SR leukemia
OVCAR-8 ovarian = test system: OVCAR-8 ovarian
SN12C renal = test system: SN12C renal
HT29 colon = test system: HT29 colon
UO-31 renal = test system: UO-31 renal
SW-620 colon = test system: SW-620 colon
HOP-18 NSCLC = test system: HOP-18 NSCLC
NCI-H226 lung = test system: NCI-H226 lung
UACC-257 melanoma = test system: UACC-257 melanoma
NCI-H522 lung = test system: NCI-H522 lung
NCI-H460 lung = test system: NCI-H460 lung
COLO 205 colon = test system: COLO 205 colon
M14 melanoma = test system: M14 melanoma
SF-539 CNS = test system: SF-539 CNS
TK-10 renal = test system: TK-10 renal
A549 NSCLC = test system: A549 NSCLC
IGROV1 ovarian = test system: IGROV1 ovarian
HCT-116 colon = test system: HCT-116 colon
NCI-H23 lung = test system: NCI-H23 lung
MOLT-4 leukemia = test system: MOLT-4 leukemia
XF 498 CNS = test system: XF 498 CNS

How did the TGI (HOP-92 NSCLC) turn out when CC(=O)OCSc1ncnc2c1ncn2CN1CCOCC1 was run?
Its TGI is > 100 µM.

And the TGI (ACHN renal)?
Its TGI is > 100 µM.

What about the TGI (SK-MEL-28 melanoma) of the same molecule?
Its TGI is > 100 µM.

And the TGI (M19-MEL melanoma)?
Its TGI is > 100 µM.

And the TGI (LXFL 529 NSCLC)?
Its TGI is > 100 µM.

And the TGI (A498 renal)?
Its TGI is > 100 µM.

And the TGI (SF-268 CNS)?
The TGI was > 100 µM.

And the TGI (HCC-2998 colon)?
The TGI was > 100 µM.

What about the TGI (SK-MEL-5 melanoma) of the same molecule?
The TGI was > 100 µM.

What about the TGI (MALME-3M melanoma) of the same molecule?
Its TGI is > 100 µM.

What about the TGI (SNB-19 CNS) of the same molecule?
The TGI was > 100 µM.

And the TGI (SK-MEL-2 melanoma)?
The TGI was > 100 µM.

And the TGI (RPMI-8226 leukemia)?
The TGI was > 100 µM.

And the TGI (RXF 393 renal)?
The TGI was > 100 µM.

And the TGI (HOP-62 NSCLC)?
The TGI was > 100 µM.

What about the TGI (U251 CNS) of the same molecule?
The TGI was > 100 µM.

What about the TGI (CCRF-CEM leukemia) of the same molecule?
The TGI was > 100 µM.

And the TGI (CAKI-1 renal)?
The TGI was > 100 µM.

What about the TGI (DMS 114 small cell lung) of the same molecule?
The TGI was > 100 µM.

And the TGI (KM12 colon)?
Its TGI is > 100 µM.

And the TGI (K-562 leukemia)?
The TGI was > 100 µM.

What about the TGI (SF-295 CNS) of the same molecule?
The TGI was > 100 µM.

What about the TGI (OVCAR-4 ovarian) of the same molecule?
Its TGI is > 100 µM.

And the TGI (786-0 renal)?
The TGI was > 100 µM.

And the TGI (SK-OV-3 ovarian)?
The TGI was > 100 µM.

What about the TGI (LOX IMVI melanoma) of the same molecule?
Its TGI is 76.6 µM.

What about the TGI (UACC-62 melanoma) of the same molecule?
Its TGI is > 100 µM.

What about the TGI (SNB-78 CNS) of the same molecule?
Its TGI is > 100 µM.

And the TGI (DLD-1 colon)?
The TGI was > 100 µM.

And the TGI (OVCAR-5 ovarian)?
Its TGI is > 100 µM.

What about the TGI (HCT-15 colon) of the same molecule?
The TGI was > 100 µM.

And the TGI (DMS 273 small cell lung)?
Its TGI is > 100 µM.

What about the TGI (HL-60(TB) leukemia) of the same molecule?
Its TGI is > 100 µM.

What about the TGI (KM20L2 colon) of the same molecule?
The TGI was > 100 µM.

What about the TGI (OVCAR-3 ovarian) of the same molecule?
Its TGI is > 100 µM.

And the TGI (EKVX NSCLC)?
The TGI was > 100 µM.

And the TGI (SNB-75 CNS)?
Its TGI is > 100 µM.

And the TGI (SR leukemia)?
Its TGI is > 100 µM.

What about the TGI (OVCAR-8 ovarian) of the same molecule?
The TGI was > 100 µM.

What about the TGI (SN12C renal) of the same molecule?
The TGI was > 100 µM.

What about the TGI (HT29 colon) of the same molecule?
Its TGI is 94.8 µM.

What about the TGI (UO-31 renal) of the same molecule?
Its TGI is > 100 µM.

What about the TGI (SW-620 colon) of the same molecule?
The TGI was > 100 µM.

And the TGI (HOP-18 NSCLC)?
Its TGI is > 100 µM.

And the TGI (NCI-H226 lung)?
Its TGI is > 100 µM.

And the TGI (UACC-257 melanoma)?
Its TGI is > 100 µM.

What about the TGI (NCI-H522 lung) of the same molecule?
Its TGI is > 100 µM.

And the TGI (NCI-H460 lung)?
Its TGI is > 100 µM.

What about the TGI (COLO 205 colon) of the same molecule?
Its TGI is 53.1 µM.

What about the TGI (M14 melanoma) of the same molecule?
Its TGI is > 100 µM.

And the TGI (SF-539 CNS)?
The TGI was > 100 µM.

And the TGI (TK-10 renal)?
Its TGI is > 100 µM.

And the TGI (A549 NSCLC)?
Its TGI is > 100 µM.

What about the TGI (IGROV1 ovarian) of the same molecule?
The TGI was > 100 µM.

What about the TGI (HCT-116 colon) of the same molecule?
The TGI was > 100 µM.

What about the TGI (NCI-H23 lung) of the same molecule?
Its TGI is 53.2 µM.

What about the TGI (MOLT-4 leukemia) of the same molecule?
Its TGI is > 100 µM.

Which results are given for CCOC(=O)/C(=C\c1ccc(OCc2ccccc2)c(OC)c1)C(=O)c1ccccc1?
TGI (ACHN renal): 34.8 µM; TGI (SK-MEL-28 melanoma): 30.4 µM; TGI (M19-MEL melanoma): 50 µM; TGI (HCC-2998 colon): > 100 µM; TGI (SK-MEL-5 melanoma): 31.9 µM; TGI (MALME-3M melanoma): 32.3 µM; TGI (SNB-19 CNS): 66.4 µM; TGI (SK-MEL-2 melanoma): 40.7 µM; TGI (RPMI-8226 leukemia): 86.5 µM; TGI (HOP-62 NSCLC): 33.6 µM; TGI (U251 CNS): 31.1 µM; TGI (CCRF-CEM leukemia): 58.5 µM; TGI (CAKI-1 renal): 64.7 µM; TGI (DMS 114 small cell lung): 41.4 µM; TGI (KM12 colon): 41.2 µM; TGI (K-562 leukemia): 48.3 µM; TGI (XF 498 CNS): 32.3 µM; TGI (SF-295 CNS): 46.8 µM; TGI (OVCAR-4 ovarian): > 100 µM; TGI (786-0 renal): 37.7 µM; TGI (SK-OV-3 ovarian): > 100 µM; TGI (LOX IMVI melanoma): 30 µM; TGI (UACC-62 melanoma): 48.4 µM; TGI (SNB-78 CNS): 76.8 µM; TGI (OVCAR-5 ovarian): 48.6 µM; TGI (HCT-15 colon): 42.3 µM; TGI (HL-60(TB) leukemia): 49 µM; TGI (KM20L2 colon): 34.3 µM; TGI (OVCAR-3 ovarian): 58.1 µM; TGI (EKVX NSCLC): 66.2 µM; TGI (SR leukemia): > 100 µM; TGI (OVCAR-8 ovarian): > 10 µM; TGI (SN12C renal): 45.6 µM; TGI (UO-31 renal): 32.4 µM; TGI (SW-620 colon): 40 µM; TGI (NCI-H226 lung): 42.5 µM; TGI (UACC-257 melanoma): > 10 µM; TGI (NCI-H522 lung): 32.6 µM; TGI (COLO 205 colon): 99.2 µM; TGI (M14 melanoma): 30.5 µM; TGI (SF-539 CNS): 31.2 µM; TGI (TK-10 renal): 61 µM; TGI (A549 NSCLC): > 10 µM; TGI (IGROV1 ovarian): 64.6 µM; TGI (HCT-116 colon): 31.3 µM; TGI (NCI-H23 lung): 35.2 µM; TGI (MOLT-4 leukemia): 43.6 µM

Which results are given for N#CCc1ccc(C(C#N)/C(CCCC(=O)Nc2cccc([N+](=O)[O-])c2)=N\NC(=O)NN)cc1 (stereo not given)?
TGI (HOP-92 NSCLC): > 100 µM; TGI (ACHN renal): > 100 µM; TGI (SK-MEL-28 melanoma): > 100 µM; TGI (M19-MEL melanoma): > 100 µM; TGI (LXFL 529 NSCLC): > 100 µM; TGI (A498 renal): > 100 µM; TGI (SF-268 CNS): > 100 µM; TGI (HCC-2998 colon): > 100 µM; TGI (SK-MEL-5 melanoma): > 100 µM; TGI (MALME-3M melanoma): > 100 µM; TGI (SNB-19 CNS): > 100 µM; TGI (SK-MEL-2 melanoma): > 100 µM; TGI (RPMI-8226 leukemia): > 100 µM; TGI (RXF 393 renal): > 100 µM; TGI (HOP-62 NSCLC): > 100 µM; TGI (U251 CNS): > 100 µM; TGI (CCRF-CEM leukemia): > 100 µM; TGI (CAKI-1 renal): > 100 µM; TGI (DMS 114 small cell lung): > 100 µM; TGI (KM12 colon): > 100 µM; TGI (K-562 leukemia): > 100 µM; TGI (SF-295 CNS): > 100 µM; TGI (OVCAR-4 ovarian): > 100 µM; TGI (786-0 renal): > 100 µM; TGI (SK-OV-3 ovarian): > 100 µM; TGI (UACC-62 melanoma): > 100 µM; TGI (SNB-78 CNS): > 100 µM; TGI (DLD-1 colon): > 100 µM; TGI (OVCAR-5 ovarian): > 100 µM; TGI (HCT-15 colon): > 100 µM; TGI (DMS 273 small cell lung): > 100 µM; TGI (HL-60(TB) leukemia): > 100 µM; TGI (KM20L2 colon): > 100 µM; TGI (OVCAR-3 ovarian): > 100 µM; TGI (EKVX NSCLC): > 100 µM; TGI (SNB-75 CNS): > 100 µM; TGI (SR leukemia): > 100 µM; TGI (OVCAR-8 ovarian): > 100 µM; TGI (SN12C renal): > 100 µM; TGI (HT29 colon): > 100 µM; TGI (UO-31 renal): > 100 µM; TGI (SW-620 colon): > 100 µM; TGI (HOP-18 NSCLC): > 100 µM; TGI (NCI-H226 lung): > 100 µM; TGI (UACC-257 melanoma): > 100 µM; TGI (NCI-H522 lung): > 100 µM; TGI (NCI-H460 lung): > 100 µM; TGI (COLO 205 colon): > 100 µM; TGI (M14 melanoma): > 100 µM; TGI (SF-539 CNS): > 100 µM; TGI (TK-10 renal): > 100 µM; TGI (A549 NSCLC): > 100 µM; TGI (IGROV1 ovarian): > 100 µM; TGI (HCT-116 colon): > 100 µM; TGI (NCI-H23 lung): > 100 µM; TGI (MOLT-4 leukemia): > 100 µM

From PubChem BioAssay (NCI)
